Test results reported in patent US20220288404A1, “METHODS FOR APPLYING TUMOR TREATING FIELDS IN COMBINATION WITH CANCER TREATING THERAPEUTICS” (THE BOARD OF REGENTS OF THE UNIVERSITY OF TEXAS SYSTEM, priority 2021, published 2022).

What was measured:
Format in all cases: cell-based
[1] = tested on: Panc-1 cells; assay: Clonogenic cell survival assay, Panc-1 cells; details: for surviving fraction: agent as shown in figure; for CI AZD + 2Gy / CI TTFields + 2Gy + AZD / CI TTFields + AZD: CI>1 synergistic
Procedure: (§1) Using certain embodiments disclosed herein, TTFields in combination with various inhibitors and/or radiation treatment (IR) were applied to NSCLC cells or pancreatic cancer cells. For example, a predetermined inhibitor at a predetermined concentration was delivered to NSCLC cells or pancreatic cancer cells, and the cells were immediately exposed to TTFields (e.g., 100-250 kHz and 1-20 V/cm v/cm) for about 24, […], or 72 hours. The predetermined concentration was a cell line specific concentration for optimal target cell killing.
(§2) Olaparib was given concomitant with TTFields. Radiation was given 24, 48 or 72 h after the initiation of TTFields and specific agents. […] Values greater than 1.0 are considered as synergistic, that is, greater than the sum of the individual responses. The following formulas were used for calculating CI: SF=Survival Fraction; CI (TTFields)+(2Gy)=(SF2Gy×SFTTFields)/SF2Gy+TTFields; CI(TTFields)+(Olap)=(SFOlap×SFTTFields)/SFOlap+TTFields; CI (2Gy)+(Olap)=(SF2Gy×SFOlap)/SF2Gy+Olap; and CI (TTFields)+(2Gy)+(Olap)=(SF2Gy×SFOlap×SFTTFields)/SFTTFields+2Gy+Olap. […] Based upon the Highest Single Agent […] approach. The calculation for the Combination Index can be found below.
(§3) FIGS. 4 and 5 depict example effects of TTFields, AZD6738, radiation, and a combination thereof on non-small cell lung cancer cells (NSCLC) and pancreatic cancer cell, respectively. In particular, FIGS. 4 and 5 show TTFields exposure synergistically increases the effects of ATR inhibitor AZD6738 on NSLCL cells (FIG. 4) survival and pancreatic cancer cell (FIG. 5) survival. TTFields were used together with ATR inhibitor AZD6738 and radiation (IR). A synergistic effect was observed when AZD6738 and IR were combined with TTFields using the highest single agent (HSA) approach. The following formulas were used for calculating CI: SF=Survival Fraction; CI (TTFields)+(2Gy)=(SF2Gy×SFTTFields)/SF2Gy+TTFields; CI(TTFields)+(AZD)=(SFAZD×SFTTFields)/SFAZD+TTFields; CI (2Gy)+(AZD)=(SF2Gy×SFAZD)/SF2Gy+AZD; and CI (TTFields)+(2Gy)+(AZD)=(SF2Gy×SFAZD×SFTTFields)/SFTTFields+2Gy+AZD.
(§4) The following formulas are used for calculating the combination Index: SF=Survival Fraction; CI (TTFields)+(2Gy)=(SF2Gy×SFTTFields)/SF2Gy+TTFields; CI(TTFields)+(Irino)=(SFIrino×SFTTFields)/SFIrino+TTFields; CI (2Gy)+(Irino)=(S2Gy×SFIrino)SF2Gy+Irino; and CI (TTFields)+(2Gy)+(Irino)=(SF2Gy×SFIrino×SFTTFields)/SFTTFields+2Gy+Irino.

[2] = tested on: 04.03 cells; assay: Clonogenic cell survival assay, 04.03 cells; details: for surviving fraction: agent as shown in figure; for CI AZD + 2Gy / CI TTFields + 2Gy + AZD / CI TTFields + AZD: CI>1 synergistic
Procedure: as §1, §2, §3

[3] = tested on: H1299 cells; assay: Clonogenic cell survival assay, H1299 cells; details: for CI 5FU + 2Gy / CI TTFields + 5FU / CI TTFields + 5FU + 2Gy / CI AZD + 2Gy / CI TTFields + 2Gy + AZD / CI TTFields + AZD / CI TTFields + CP: CI>1 synergistic; for surviving fraction: agent as shown in figure
Procedure: as §1, with “killing. Then, the cells were irradiated (at a dose of 2Gy) for less than a minute (e.g., 3.25 Gy/min) and immediately plated for survival.” for “killing.”
as §3, §4

[4] = tested on: H157 cells; assay: Clonogenic cell survival assay, H157 cells; details: for CI 5FU + 2Gy / CI TTFields + 5FU / CI TTFields + 5FU + 2Gy / CI AZD + 2Gy / CI TTFields + 2Gy + AZD / CI TTFields + AZD / CI TTFields + CP: CI>1 synergistic; for surviving fraction: agent as shown in figure
Procedure: as §1, with “killing. Then, the cells were irradiated (at a dose of 2Gy) for less than a minute (e.g., 3.25 Gy/min) and immediately plated for survival.” for “killing.”
as §3, §4

[5] = tested on: H1299 cells; assay: Clonogenic cell survival assay, H1299 cells; details: 48 h, CI>1 synergistic
[6] = tested on: H157 cells; assay: Clonogenic cell survival assay, H157 cells; details: 48 h, CI>1 synergistic
[7] = tested on: NSCLC; assay: Cell survival of NSCLC cells with CP/ETP with/without TTFields (FIG. 6); details: HSA approach
Procedure: as §1, with “killing. Then, the cells were irradiated (at a dose of 2Gy) for less than a minute (e.g., 3.25 Gy/min) and immediately plated for survival.” for “killing.”
FIG. 6 depicts example effects of TTFields, Cisplatin, Etoposide, and a combination thereof on NSCLC. […] CP and ETP were tested alone or in combination and with/without TTFields.

`O=c1[nH]cc(F)c(=O)[nH]1` [5FU, 5-Fluorouracil] was tested, and the “effect of combinations of TTFields, agent and/or IR on cell survival” value (“effect of combinations of TTFields” for short) [1] was “synergistic effects”, the surviving fraction [1] was “significantly reduced” and the “effect of combinations of TTFields” value [2] was “synergistic effects”. The surviving fraction [2] was “significantly reduced”, the “effect of combinations of TTFields” value [3] was “synergistic effects” and the “CI 5FU + 2Gy” value ([3]; 24 h) was 1.254. The “CI TTFields + 5FU” value ([3]; 24 h) was 1.352, the “CI TTFields + 5FU + 2Gy” value ([3]; 24 h) was 1.762 and the “CI 5FU + 2Gy” value ([3]; 48 h) was 0.950. For the same molecule, the “CI TTFields + 5FU” value ([3]; 48 h) was 1.348, the “CI TTFields + 5FU” value ([3]; 72 h) was 1.326 and the “CI TTFields + 5FU + 2Gy” value ([3]; 72 h) was 1.345. The surviving fraction [3] was “significantly reduced”, the “effect of combinations of TTFields” value [4] was “synergistic effects” and the “CI 5FU + 2Gy” value ([4]; 24 h) was 0.894. The “CI TTFields + 5FU” value ([4]; 24 h) was 1.559, the “CI TTFields + 5FU + 2Gy” value ([4]; 24 h) was 1.433 and the “CI 5FU + 2Gy” value ([4]; 48 h) was 0.962. The “CI TTFields + 5FU + 2Gy” value ([4]; 48 h) was 1.783, the “CI 5FU + 2Gy” value ([4]; 72 h) was 1.125 and the “CI TTFields + 5FU” value ([4]; 72 h) was 1.106. For the same molecule, the “CI TTFields + 5FU + 2Gy” value ([4]; 72 h) was 1.658, the surviving fraction [4] was “significantly reduced” and the “CI TTFields + 5FU + 2Gy” value [5] was 1.263. The “CI TTFields + 5FU” value [6] was 1.252.

With `C[C@@H]1COCCN1c1cc(C2([S@](C)(=N)=O)CC2)nc(-c2cc[nH]c3nccc2-3)n1` [AZD, Ceralasertib (AZD6738)] the “effect of combinations of TTFields” value [1] was “synergistic effects”, the “CI AZD + 2Gy” value ([1]; 24 h) was 0.894 and the “CI TTFields + 2Gy + AZD” value ([1]; 24 h) was 1.068. The “CI TTFields + AZD” value ([1]; 24 h) was 1.088, the “CI AZD + 2Gy” value ([1]; 48 h) was 0.879 and the “CI TTFields + 2Gy + AZD” value ([1]; 48 h) was 1.153. For the same molecule, the “CI TTFields + AZD” value ([1]; 48 h) was 0.970, the “CI AZD + 2Gy” value ([1]; 72 h) was 1.030 and the “CI TTFields + 2Gy + AZD” value ([1]; 72 h) was 1.514. For the same molecule, the “CI TTFields + AZD” value ([1]; 72 h) was 1.072, the surviving fraction [1] was “significantly reduced” and the “effect of combinations of TTFields” value [2] was “synergistic effects”. The “CI AZD + 2Gy” value ([2]; 24 h) was 1.018, the “CI TTFields + 2Gy + AZD” value ([2]; 24 h) was 1.272 and the “CI TTFields + AZD” value ([2]; 24 h) was 1.049. For the same molecule, the “CI AZD + 2Gy” value ([2]; 48 h) was 1.158, the “CI TTFields + 2Gy + AZD” value ([2]; 48 h) was 2.394 and the “CI TTFields + AZD” value ([2]; 48 h) was 1.550. For the same molecule, the “CI AZD + 2Gy” value ([2]; 72 h) was 1.011, the “CI TTFields + 2Gy + AZD” value ([2]; 72 h) was 2.674 and the “CI TTFields + AZD” value ([2]; 72 h) was 1.287. For the same molecule, the surviving fraction [2] was “significantly reduced”, the “effect of combinations of TTFields” value [3] was “synergistic effects” and the “CI AZD + 2Gy” value ([3]; 24 h) was 1.127. For the same molecule, the “CI TTFields + 2Gy + AZD” value ([3]; 24 h) was 3.553, the “CI TTFields + AZD” value ([3]; 24 h) was 1.070 and the “CI TTFields + 2Gy + AZD” value ([3]; 48 h) was 2.535. For the same molecule, the “CI AZD + 2Gy” value ([3]; 72 h) was 1.143, the “CI TTFields + 2Gy + AZD” value ([3]; 72 h) was 2.206 and the “CI TTFields + AZD” value ([3]; 72 h) was 1.092. The surviving fraction [3] was “significantly reduced”, the “effect of combinations of TTFields” value [4] was “synergistic effects” and the “CI AZD + 2Gy” value ([4]; 24 h) was 1.498. The “CI TTFields + 2Gy + AZD” value ([4]; 24 h) was 2.430, the “CI TTFields + AZD” value ([4]; 24 h) was 1.048 and the “CI AZD + 2Gy” value ([4]; 48 h) was 1.292. The “CI TTFields + 2Gy + AZD” value ([4]; 48 h) was 2.062, the “CI AZD + 2Gy” value ([4]; 72 h) was 3.115 and the “CI TTFields + 2Gy + AZD” value ([4]; 72 h) was 4.874. The “CI TTFields + AZD” value ([4]; 72 h) was 1.036, the surviving fraction [4] was “significantly reduced” and the “CI AZD + 2Gy” value [5] was 1.215. For the same molecule, the “CI TTFields + AZD” value [5] was 1.242 and the “CI TTFields + AZD” value [6] was 1.072.

With `N.N.[Cl][Pt][Cl]` [CP, Cisplatin] the “CI TTFields + CP” value ([3]; 24 h) was 1.140, the “CI TTFields + CP” value ([3]; 48 h) was 1.021 and the “CI TTFields + CP” value ([3]; 72 h) was 1.225. The “CI TTFields + CP” value ([4]; 24 h) was 0.887, the “CI TTFields + CP” value ([4]; 48 h) was 0.869 and the “CI TTFields + CP” value ([4]; 72 h) was 1.079. For the same molecule, the “cell killing capacity in combination with TTFields” value [7] was “synergistically enhanced”.
